Data as given in patent US12391737B2, “Soluble NPY2 receptor agonists” (Boehringer Ingelheim International GmbH, priority 2020, dated 2025).
*1 amine or outer side, *2 acyl side, *3 side chain or, on linkers, in order; H or OH if unused. Where a SMILES comes first, the peptide text is derived from it. Side-chain parts run from the residue outwards. The star is where a group is joined. C18 diacid = O=C(O)CCCCCCCCCCCCCCCCC(=O)*; γGlu = O=C(O)[C@H](CCC(=O)[*:2])N[*:1]; Isovaleryl = CC(C)CC(=O)*; Ahx = NCCCCCC(=O)O

Assays:
[1] = target: T1, Human Neuropeptide Y2 Receptor (Homo sapiens, UniProt P49146); experiment: Radioligand binding competition assay (RLB); conditions: Table 3, 125I-PYY(1-36) competition; read-out: Ki
T1 construct: purchased CHEMICON HTS066M
T1 sequence (P49146 1-381): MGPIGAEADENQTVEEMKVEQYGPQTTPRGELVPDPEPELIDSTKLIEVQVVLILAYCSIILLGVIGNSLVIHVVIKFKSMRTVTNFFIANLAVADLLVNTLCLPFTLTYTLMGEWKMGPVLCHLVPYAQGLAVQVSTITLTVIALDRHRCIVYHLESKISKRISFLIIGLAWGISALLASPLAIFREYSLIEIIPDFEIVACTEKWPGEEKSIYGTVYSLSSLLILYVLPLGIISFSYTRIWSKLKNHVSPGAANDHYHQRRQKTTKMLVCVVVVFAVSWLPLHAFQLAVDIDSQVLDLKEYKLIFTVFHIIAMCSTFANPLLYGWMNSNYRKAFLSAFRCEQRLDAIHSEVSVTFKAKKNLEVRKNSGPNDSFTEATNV
Procedure, shortened: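 Competition binding used membranes expressing the receptor (0.5 μg protein/well) in 50 mM HEPES, 5 mM MgCl2, 1 mM CaCl2, pH 7.4 with 0.2% ovalbumin, incubated 2 h at room temperature with shaking. Bound radioligand was collected by filtration onto PEI-soaked GF/C filters and counted; IC50 from nonlinear sigmoidal fits.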

Solubility determination = conditions: for Sol6: pH 6; for Sol7: pH 7
Procedure, shortened: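 Sample: TFA-salt peptide at 10 mg/ml target in 0.1 M Na diphosphate, pH 6.4 or 7.0, shaken 2 h RT, filtered, diluted to 1 mg/ml.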

| SMILES | Ki [1] [nM] | Sol6 (Solubility determination) [mg/mL] | Sol7 (Solubility determination) [mg/mL] |
| --- | --- | --- | --- |
| CC[C@H](C)[C@H](NC(=O)[C@H](CCC(=O)O)NC(=O)[C@H](CCC(=O)O)NC(=O)[C@@H]1CCCN1C(=O)[C@H](CCC(=O)O)NC(=O)[C@H](C)NC(=O)[C@H](C)NC(=O)[C@H](C)NC(=O)[C@H](CCC(=O)O)NC(=O)[C@@H]1CCCN1C(=O)[C@H](CCCCNC(=O)CCCCCNC(=O)CC[C@H](NC(=O)CCCCCCCCCCCCCCCCC(=O)O)C(=O)O)NC(=O)[C@H](CCC(=O)O)NC(=O)[C@@H]1CCCN1C(=O)[C@H](C)NC(=O)CC(C)C)C(=O)N[C@@H](CCC(N)=O)C(=O)N[C@@H](CCCNC(=N)N)C(=O)N[C@@H](Cc1ccc(O)cc1)C(=O)N[C@@H](Cc1ccc(O)cc1)C(=O)N[C@H](C(=O)N[C@@H](C)C(=O)N[C@@H](CC(C)C)C(=O)N[C@@H](CCCNC(=N)N)C(=O)N[C@@H](Cc1c[nH]cn1)C(=O)N[C@@H](Cc1ccc(O)cc1)C(=O)N[C@@H](Cc1ccc(O)cc1)C(=O)N[C@@H](CC(N)=O)C(=O)N[C@@H](Cc1c[nH]c2ccccc12)C(=O)N[C@@H](CC(C)C)C(=O)N[C@H](C(=O)N[C@@H](CCCNC(=N)N)C(=O)N[C@@H](CCC(N)=O)C(=O)N[C@@H](CCCNC(=N)N)C(=O)N[C@@H](Cc1ccc(O)cc1)C(N)=O)[C@@H](C)O)C(C)C [Compound 135, N{alpha-4}-(3-methylbutanoyl)-N{epsilon-7}-(6-[(4S)-4-carboxy-4-(17-carboxyheptadecanamido)butanamido]hexanoyl)-[4A,7K,9E,10A,11A,13E,17I,18Q,22V,23A,28Y,30W,31L]-hPYY(4-36)] (Isovaleryl-APEK([Ahx-γGlu-C18 diacid])PEAAAEPEEIQRYYVALRHYYNWLTRQRY-NH2) | 3.83 | 0.2 | >10.0 |
| CC(C)CC(=O)N[C@@H](C)C(=O)N1CCC[C@H]1C(=O)N[C@@H](CCC(=O)O)C(=O)N[C@@H](CCCCNC(=O)CCCCCNC(=O)CC[C@H](NC(=O)CCCCCCCCCCCCCCCCC(=O)O)C(=O)O)C(=O)N1CCC[C@H]1C(=O)N[C@@H](CCC(=O)O)C(=O)N[C@@H](CCC(=O)O)C(=O)N[C@@H](CC(=O)O)C(=O)N[C@@H](CO)C(=O)N[C@@H](CO)C(=O)N1CCC[C@H]1C(=O)N[C@@H](CCC(=O)O)C(=O)N[C@@H](CCC(=O)O)C(=O)N[C@@H](CC(C)C)C(=O)N[C@@H](CCC(N)=O)C(=O)N[C@@H](CCCNC(=N)N)C(=O)N[C@@H](Cc1ccc(O)cc1)C(=O)N[C@@H](Cc1ccc(O)cc1)C(=O)N[C@H](C(=O)N[C@@H](C)C(=O)N[C@@H](CC(C)C)C(=O)N[C@@H](CCCNC(=N)N)C(=O)N[C@@H](Cc1c[nH]cn1)C(=O)N[C@@H](Cc1ccc(O)cc1)C(=O)N[C@@H](Cc1ccc(O)cc1)C(=O)N[C@@H](CC(N)=O)C(=O)N[C@@H](Cc1c[nH]c2ccccc12)C(=O)N[C@@H](CC(C)C)C(=O)N[C@H](C(=O)N[C@@H](CCCNC(=N)N)C(=O)N[C@@H](CCC(N)=O)C(=O)N[C@@H](CCCNC(=N)N)C(=O)N[C@@H](Cc1ccc(O)cc1)C(N)=O)[C@@H](C)O)C(C)C [Compound 151, N{alpha-4}-(3-methylbutanoyl)-N{epsilon-7}-(6-[(4S)-4-carboxy-4-(17-carboxyheptadecanamido)butanamido]hexanoyl)-[4A,7K,9E,12S,18Q,22V,23A,28Y,30W,31L]-hPYY(4-36)] | 1.68 | 8.2 | 9.7 |
| CC[C@H](C)[C@H](NC(=O)[C@H](Cc1ccc(O)cc1)NC(=O)[C@H](Cc1ccc(O)cc1)NC(=O)[C@H](CCCNC(=N)N)NC(=O)[C@H](CCC(N)=O)NC(=O)[C@H](CC(C)C)NC(=O)[C@H](CCC(=O)O)NC(=O)[C@H](CCC(=O)O)NC(=O)[C@@H]1CCCN1C(=O)[C@H](CCC(=O)O)NC(=O)[C@H](C)NC(=O)[C@H](CC(=O)O)NC(=O)[C@H](C)NC(=O)[C@H](CCC(=O)O)NC(=O)[C@@H]1CCCN1C(=O)[C@H](CCCCNC(=O)CCCCCNC(=O)CC[C@H](NC(=O)CCCCCCCCCCCCCCCCC(=O)O)C(=O)O)NC(=O)[C@H](CCC(=O)O)NC(=O)[C@@H]1CCCN1C(=O)[C@H](C)NC(=O)CC(C)C)C(=O)N[C@@H](C)C(=O)N[C@@H](CC(C)C)C(=O)N[C@@H](CCCNC(=N)N)C(=O)N[C@@H](Cc1c[nH]cn1)C(=O)N[C@@H](Cc1ccc(O)cc1)C(=O)N[C@@H](Cc1ccc(O)cc1)C(=O)N[C@@H](CC(N)=O)C(=O)N[C@@H](Cc1c[nH]c2ccccc12)C(=O)N[C@@H](CC(C)C)C(=O)N[C@H](C(=O)N[C@@H](CCCNC(=N)N)C(=O)N[C@@H](CCC(N)=O)C(=O)N[C@@H](CCCNC(=N)N)C(=O)N[C@@H](Cc1ccc(O)cc1)C(N)=O)[C@@H](C)O [Compound 1, N{alpha-4}-(3-methylbutanoyl)-N{epsilon-7}-(6-[(4S)-4-carboxy-4-(17-carboxyheptadecanamido)butanamido]hexanoyl)[4A,7K,9E,10A,13E,18Q,22I,23A,28Y,30W,31L]-hPYY(4-36)] | 2.05 | 10.0 | 7.6 |

Results, then the compound that gave them:

| Ki [1] [nM] | Sol6 (Solubility determination) [mg/mL] | Sol7 (Solubility determination) [mg/mL] | SMILES |
| --- | --- | --- | --- |
| 2.83 | 10.0 | 10.0 | CC(C)CC(=O)N[C@@H](C)C(=O)N1CCC[C@H]1C(=O)N[C@@H](CCC(=O)O)C(=O)N[C@@H](CCCCNC(=O)CCCCCNC(=O)CC[C@H](NC(=O)CCCCCCCCCCCCCCCCC(=O)O)C(=O)O)C(=O)N1CCC[C@H]1C(=O)N[C@@H](CCC(=O)O)C(=O)N[C@@H](C)C(=O)N[C@@H](CC(=O)O)C(=O)N[C@@H](C)C(=O)N[C@@H](CO)C(=O)N1CCC[C@H]1C(=O)N[C@@H](CCC(=O)O)C(=O)N[C@@H](CCC(=O)O)C(=O)N[C@@H](CC(C)C)C(=O)N[C@@H](CCC(N)=O)C(=O)N[C@@H](CCCNC(=N)N)C(=O)N[C@@H](Cc1ccc(O)cc1)C(=O)N[C@@H](Cc1ccc(O)cc1)C(=O)N[C@H](C(=O)N[C@@H](CCC(=O)O)C(=O)N[C@@H](CC(C)C)C(=O)N[C@@H](CCCNC(=N)N)C(=O)N[C@@H](Cc1c[nH]cn1)C(=O)N[C@@H](Cc1ccc(O)cc1)C(=O)N[C@@H](Cc1ccc(O)cc1)C(=O)N[C@@H](CC(N)=O)C(=O)N[C@@H](Cc1c[nH]c2ccccc12)C(=O)N[C@@H](CC(C)C)C(=O)N[C@H](C(=O)N[C@@H](CCCNC(=N)N)C(=O)N[C@@H](CCC(N)=O)C(=O)N[C@@H](CCCNC(=N)N)C(=O)N[C@@H](Cc1ccc(O)cc1)C(N)=O)[C@@H](C)O)C(C)C [Compound 171, N{alpha-4}-(3-methylbutanoyl)-N{epsilon-7}-(6-[(4S)-4-carboxy-4-(17-carboxyheptadecanamido)butanamido]hexanoyl)-[4A,7K,9E,10A,18Q,22V,23E,28Y,30W,31L]-hPYY(4-36)] |
| 2.07 | 8.3 | 9.6 | CC(C)CC(=O)N[C@@H](C)C(=O)N1CCC[C@H]1C(=O)N[C@@H](C)C(=O)N[C@@H](CCCCNC(=O)CCCCCNC(=O)CC[C@H](NC(=O)CCCCCCCCCCCCCCCCC(=O)O)C(=O)O)C(=O)N1CCC[C@H]1C(=O)N[C@@H](CCC(=O)O)C(=O)N[C@@H](CCC(=O)O)C(=O)N[C@@H](CC(=O)O)C(=O)N[C@@H](C)C(=O)N[C@H](C(=O)N1CCC[C@H]1C(=O)N[C@@H](CCC(=O)O)C(=O)N[C@@H](CCC(=O)O)C(=O)N[C@@H](C)C(=O)N[C@@H](CCC(N)=O)C(=O)N[C@@H](CCCNC(=N)N)C(=O)N[C@@H](Cc1ccc(O)cc1)C(=O)N[C@@H](Cc1ccc(O)cc1)C(=O)N[C@H](C(=O)N[C@@H](CO)C(=O)N[C@@H](CC(C)C)C(=O)N[C@@H](CCCNC(=N)N)C(=O)N[C@@H](Cc1c[nH]cn1)C(=O)N[C@@H](Cc1ccc(O)cc1)C(=O)N[C@@H](Cc1ccc(O)cc1)C(=O)N[C@@H](CC(N)=O)C(=O)N[C@@H](Cc1c[nH]c2ccccc12)C(=O)N[C@@H](CC(C)C)C(=O)N[C@H](C(=O)N[C@@H](CCCNC(=N)N)C(=O)N[C@@H](CCC(N)=O)C(=O)N[C@@H](CCCNC(=N)N)C(=O)N[C@@H](Cc1ccc(O)cc1)C(N)=O)[C@@H](C)O)C(C)C)[C@@H](C)O [Compound 57, N{alpha-4}-(3-methylbutanoyl)-N{epsilon-7}-(6-[(4S)-4-carboxy-4-(17-carboxyheptadecanamido)butanamido]hexanoyl)-[4A,6A,7K,9E,13T,17A,18Q,22V,28Y,30W,31L]-hPYY(4-36)] |
